Results: PMC5733478, “A Non-imaging High Throughput Approach to Chemical Library Screening at the Unmodified Adenosine-A3 Receptor in Living Cells” (Frontiers in Pharmacology, 2017)
Where a name gives a salt, the structure may show the parent alone.

These compounds were tested against T1, human A3AR (Homo sapiens, UniProt P0DMS8) (assay: LOPAC library primary screen: single concentration (10 μM) inhibition of 25 nM CA200645 binding, PHERAstar FS). Conditions: not given.
T1 construct: expressed in transfected cells
T1 sequence (P0DMS8 1-318): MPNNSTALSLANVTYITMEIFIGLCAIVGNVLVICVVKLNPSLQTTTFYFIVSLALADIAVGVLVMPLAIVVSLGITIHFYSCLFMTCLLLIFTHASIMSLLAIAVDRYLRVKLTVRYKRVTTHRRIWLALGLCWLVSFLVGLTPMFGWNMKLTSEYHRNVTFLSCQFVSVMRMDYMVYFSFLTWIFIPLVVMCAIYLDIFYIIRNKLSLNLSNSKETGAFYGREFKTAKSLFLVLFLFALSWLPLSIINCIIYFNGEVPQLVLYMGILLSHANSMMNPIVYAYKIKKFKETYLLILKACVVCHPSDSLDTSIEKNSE

| SMILES | % 25 nM CA200645 binding [%] |
| --- | --- |
| CC1CCN(CC[C@H]2CCCN2S(=O)(=O)c2cccc(O)c2)CC1.Cl [SB 269970 hydrochloride] | 93.6 ± 22.9 |
| CC(C)(NS(=O)(=O)c1ccc(Oc2ccc(F)cc2)cc1)C(=O)NO [CP-471474] | 98.7 ± 17.5 |
| Br.CN=c1nc(-c2ccccc2)n(-c2ccccc2)s1 [SCH-202676 hydrobromide] | 83.4 ± 13.1 |
| CCN(CC)CCNC(=O)c1ccc(NC(C)=O)cc1.Cl [N-Acetylprocainamide hydrochloride] | 86.4 ± 17.7 |
| Cn1cc(C2=C(c3ccc(Cl)cc3Cl)C(=O)NC2=O)c2ccccc21 [SB 216763] | 94.5 ± 10.2 |
| O.O=c1cc(-c2ccccc2)oc2c(O)c(O)ccc12 [7,8-Dihydroxyflavone hydrate] | 68.2 ± 13.0 |
| COc1ccccc1OCCNCC(O)COc1cccc2[nH]c3ccccc3c12 (stereo not shown) [Carvedilol] | 100.8 ± 14.2 |
| CCCCCCCCCCCCCCC[C@H](O)[C@H](N)CO (racemic) [DL-erythro-Dihydrosphingosine] | 98.5 ± 11.2 |
| COc1ccccc1OCC(O)CN1CCN(CC(=O)Nc2c(C)cccc2C)CC1 (stereo not shown) [Ranolazine dihydrochloride] | 102.3 ± 13.7 |
| NCCc1c[nH]cn1 [Histamine dihydrochloride] | 102.0 ± 10.2 |
| CN(C)C(=O)N=NC(=O)N(C)C [N,N,N',N'-Tetramethylazodicarboxamide] | 95.9 ± 2.2 |
| NC(=O)c1cc[n+](CC2=C(C(=O)[O-])N3C(=O)[C@@H](NC(=O)C(c4ccccc4)S(=O)(=O)[O-])[C@H]3SC2)cc1.O.[Na+] (stereo partly shown) [Cefsulodin sodium salt hydrate] | 100.8 ± 6.6 |
| CSc1nc(N)c2ncn([C@@H]3O[C@H](COP(=O)([O-])OP(=O)([O-])OP(=O)([O-])[O-])[C@@H](O)[C@H]3O)c2n1.[Na+].[Na+].[Na+].[Na+] | 99.0 ± 0.7 |
| N#C/C(=C\c1ccc(O)c(O)c1)C(=O)Nc1ccccc1 [Tyrphostin AG 494] | 91.5 ± 7.4 |
| CCCCCCCC/C=C\CCCCCCCC(=O)NCc1ccc(O)c(OC)c1 [Olvanil] | 76.7 ± 2.8 |
| CCS(=O)(=O)Nc1cccc(C(=C2CCCCC2)c2cnc[nH]2)c1 [A-315456] | 92.6 ± 5.2 |
| Oc1ccc2c3c1O[C@H]1c4oc5ccccc5c4C[C@@]4(O)[C@@H](C2)N(CC2CC2)CC[C@]314 [Naltriben methanesulfonate] | 106.9 ± 8.0 |
| Cc1ccc(C(=O)Nc2ccc(S(=O)(=O)[O-])c3cc(S(=O)(=O)[O-])cc(S(=O)(=O)[O-])c23)cc1NC(=O)c1cccc(NC(=O)Nc2cccc(C(=O)Nc3cc(C(=O)Nc4ccc(S(=O)(=O)[O-])c5cc(S(=O)(=O)[O-])cc(S(=O)(=O)[O-])c45)ccc3C)c2)c1.[Na+].[Na+].[Na+].[Na+].[Na+].[Na+] [Suramin sodium salt] | 93.4 ± 9.0 |
| Cc1cn([C@H]2C=C[C@@H](CO)O2)c(=O)[nH]c1=O [2',3'-didehydro-3'-deoxythymidine] | 82.1 ± 11.9 |
| Br.NCc1cc(O)no1 [Muscimol hydrobromide] | 107.5 ± 2.4 |
| COc1cc2nc(N3CCCN(C)CC3)nc(NC3CCN(Cc4ccccc4)CC3)c2cc1OC [BIX 01294 trihydrochloride hydrate] | 97.9 ± 21.2 |
| O=C(N[C@@H](Cc1ccccc1)C(=O)CCl)OCc1ccccc1 [Z-L-Phe chloromethyl ketone] | 100.8 ± 7.1 |
| CC1=NN=C(c2ccc(N)cc2)c2cc3c(cc2C1)OCO3.Cl [GYKI 52466 hydrochloride] | 78.2 ± 10.4 |
| COc1cc(OC)cc(-c2cc3cnc(N)nc3nc2NC(=O)NC(C)(C)C)c1 [PD-166866] | 34.3 ± 9.7 |

| SMILES | % 25 nM CA200645 binding [%] |
| --- | --- |
| O=C(O)c1cccnc1Nc1cccc(C(F)(F)F)c1 [Niflumic acid] | 113.3 ± 19.3 |
| C#CCN[C@H](C)Cc1ccccc1.Cl [R-(-)-Desmethyldeprenyl hydrochloride] | 101.0 ± 11.7 |
| CC12NC(Cc3ccccc31)c1ccccc12.O=C(O)/C=C\C(=O)O (single isomer, unassigned; (+)) [(+)-MK-801 hydrogen maleate] | 104.8 ± 18.5 |
| Cl.Cl.O=c1ccc2[nH]cc(C3=CCNCC3)c2[nH]1 [CP-93129 dihydrochloride hydrate] | 102.1 ± 6.9 |
| O=C1CN(/N=C/c2ccc(-c3ccc([N+](=O)[O-])cc3)o2)C(O)=N1 [Dantrolene sodium] | 94.8 ± 9.5 |
| CC[C@@H](C(N)=O)N1CCCC1=O [Levetiracetam] | 102.2 ± 9.6 |
| Br.COc1ccc2c(c1)[C@]13CCCC[C@@H]1[C@H](C2)N(C)CC3.O | 102.0 ± 12.4 |
| Cc1cccc(-c2[nH]c(C(C)(C)C)nc2-c2ccc3nccnc3c2)n1 [SB-525334] | 76.3 ± 9.5 |
| OC(CCN1CCCCC1)(c1ccccc1)C1CCCCC1 (stereo not shown) [Trihexyphenidyl hydrochloride] | 99.4 ± 5.7 |
| NC(Cc1cc(O)c(O)cc1O)C(=O)O (racemic) [6-Hydroxy-DL-DOPA] | 69.7 ± 9.9 |
| COc1ccc2c(c1O)-c1cccc3c1[C@@H](C2)N(C)CC3.Cl [R(-)-Apocodeine hydrochloride] | 70.5 ± 34.0 |
| N=C(N)NC(=N)Nc1ccccc1 [1-Phenylbiguanide] | 96.2 ± 2.3 |
| CCCN(CCC)C(=O)C(CCC(=O)O)NC(=O)c1ccccc1 (stereo not shown) [Proglumide] | 107.1 ± 0.6 |
| COC(=O)[C@H](NC(=O)c1cc(-c2ccccc2)nc2ccccc12)c1ccccc1 [SB 218795] | 51.1 ± 8.4 |
| CC1(C)CCC2=C(O1)c1ccccc1C(=O)C2=O [beta-Lapachone] | 93.1 ± 5.0 |
| CCCN1C[C@H](CSC)C[C@@H]2c3cccc4[nH]cc(c34)C[C@H]21 [Pergolide methanesulfonate] | 82.8 ± 15.4 |
| Nc1nc(N)c2nc(CNc3ccc(C(=O)N[C@@H](CCC(=O)O)C(=O)O)cc3)cnc2n1 [Aminopterin] | 91.1 ± 3.5 |
| COC(=O)[C@@H]1[C@H]2C[C@H]3c4[nH]c5ccccc5c4CCN3C[C@@H]2CC[C@@H]1O [Yohimbine hydrochloride] | 100.6 ± 0.5 |
| COc1cc(C(O)CO)ccc1OS(=O)(=O)[O-].[K+] (stereo not shown) [MHPG sulfate potassium] | 102.8 ± 6.8 |
| CCCC1O[C@@H]2C[C@H]3[C@@H]4CCC5=CC(=O)C=C[C@]5(C)[C@H]4[C@@H](O)C[C@]3(C)[C@]2(C(=O)CO)O1 (stereo partly shown) [Budesonide] | 92.7 ± 8.6 |
| Cc1cccc(C)c1NC(=O)C(C)N (stereo not shown) [Tocainide hydrochloride] | 102.0 ± 15.0 |
| Cc1cc2c(cc1Cl)N(C(=O)Nc1ccc(Oc3cccnc3C)nc1)CC2.Cl.Cl.O [SB 242084 dihydrochloride hydrate] | 49.6± 12.4 |
| COc1ccc2[nH]cc(CCNC(C)=O)c2c1 [Melatonin] | 106.6 ± 11.6 |
| C[C@H](CS)C(=O)N1CCC[C@H]1C(=O)O [Captopril] | 97.2 ± 6.3 |

Same assay, conditions: % of control wells (1% DMSO and 25 nM CA200645); compounds at 10 µM; whole live cells expressing the A3AR; mean ± SD, three experiments in duplicate

| SMILES | % 25 nM CA200645 binding [%] |
| --- | --- |
| O=C(O)c1cc(=O)c2ccccc2[nH]1 [Kynurenic acid] | 83.5 ± 10.7 |
